In US7915291B2, “Hepatitis C virus inhibitors” (Bristol-Myers Squibb Company, priority 2002, dated 2011):

Assays:
[1] = target: HCV NS3/4A protease complex, BMS strain (UniProt P27958, C1454S/C1711G, species not given/STRAIN_BMS); assay: Recombinant HCV NS3/4A protease complex FRET peptide assay (BMS strain); type: biochemical, HCV genotype 1a; settings: NS3/4A BMS strain; read-out: IC50 range
In short: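 Percent inhibition taken from the linear-range fluorescence slope relative to uninhibited control, read kinetically for about 15 min at 25° C. Enzyme (2-3 nM, BMS NS3/4A complex, lysine-tailed, Ni-NTA purified) met compound for 1 min before 2 μM FRET depsipeptide substrate started cleavage.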

[2] = test system: HCV replicon in Huh7 cells; assay: HCV replicon cell-based assay; set-up: species or system HCV strain 1B; settings: Hepatitis C virus, Huh-7; HCV replicon, Huh7 cells; read-out: EC50 range

C=C[C@@H]1C[C@]1(NC(=O)[C@@H]1C[C@@H](Oc2nccc3ccccc23)CN1C(=O)[C@@H](NC(=O)CCOC)C(C)(C)C)C(=O)NS(=O)(=O)C1CC1 [Compound 132]
IC50 [1]: < 100 nM
EC50 [2]: 1000 to 10000 nM

C=CC1C[C@]1(NC(=O)[C@@H]1C[C@@H](Oc2nc3c(c4ccccc24)OCOC3)CN1C(=O)[C@@H](NC(=O)OC(C)(C)C)C(C)(C)C)C(=O)NS(=O)(=O)C1CC1 (stereo partly drawn) [Compound 227, BOCNH-P3(L-t-BuGly)-P2[(4R)-(1,3-oxazino[5,6-c]isoquinoline-6-oxo)-S-proline]-P1(1R,2S VinylAcca)-CONHSO2Cyclopropane]
IC50 [1]: < 100 nM
EC50 [2]: < 100 nM

C=C[C@@H]1C[C@]1(NC(=O)[C@@H]1C[C@@H](Oc2nccc3cc(OC)ccc23)CN1C(=O)[C@@H](NC(=O)N[C@H](C(=O)OCC)C(C)C)C(C)(C)C)C(=O)NS(=O)(=O)C1CC1 [Compound 148]
IC50 [1]: < 100 nM
EC50 [2]: < 100 nM

C=C[C@@H]1C[C@]1(NC(=O)[C@@H]1C[C@@H](Oc2nccc3ccccc23)CN1C(=O)[C@@H](NC(=O)COC)C(C)(C)C)C(=O)NS(=O)(=O)C1CC1 [Compound 131]
IC50 [1]: 100 to 1000 nM
EC50 [2]: 1000 to 10000 nM

C=C[C@@H]1C[C@]1(NC(=O)[C@@H]1CC(Oc2nccc3cc(OC)ccc23)CN1C(=O)[C@@H](NC(=O)N(C)C(C)(C)C)C(C)(C)C)C(=O)NS(=O)(=O)C1CC1 (stereo partly shown) [Compound 77]
IC50 [1]: < 100 nM
EC50 [2]: 100 to 1000 nM

C=C[C@@H]1C[C@]1(NC(=O)[C@@H]1C[C@@H](Oc2nccc3cc(OC)ccc23)CN1C(=O)[C@@H](NC(=O)NC1CCCC1)[C@H](C)OC)C(=O)NS(=O)(=O)C1CC1 [Compound 103]
IC50 [1]: < 100 nM
EC50 [2]: < 100 nM

C=CC1C[C@]1(NC(=O)[C@@H]1C[C@@H](Oc2nccc3cc(C(=O)N(C)C)ccc23)CN1C(=O)[C@@H](NC(=O)OC(C)(C)C)C(C)(C)C)C(=O)NS(=O)(=O)C1CC1 (stereo partly drawn) [Compound 244, BOCNH-P3(L-t-BuGly)-P2-[(4R) -(6-carboxylic acid dimethylamideisoquinoline-1-oxo)-S-proline]-P1(1R,2S VinylAcca) -CONHSO2Cyclopropane]
IC50 [1]: < 100 nM
EC50 [2]: 10000 to 100000 nM

C=CC1C[C@]1(NC(=O)[C@@H]1C[C@@H](Oc2nccc(-c3ccccn3)n2)CN1C(=O)[C@@H](NC(=O)OC)C(C)(C)C)C(=O)NS(=O)(=O)C1CC1 (stereo partly shown) [Compound 336]
IC50 [1]: 100 to 1000 nM
EC50 [2]: 1000 to 10000 nM

CC[C@@H]1C[C@]1(NC(=O)[C@@H]1C[C@@H](Oc2nccc3ccc(C)cc23)CN1C(=O)[C@@H](NC(=O)OC(C)(C)C)C(C)(C)C)C(=O)NS(=O)(=O)C1CC1 [Compound 296]
IC50 [1]: < 100 nM
EC50 [2]: 100 to 1000 nM

C=C[C@@H]1C[C@]1(NC(=O)[C@@H]1C[C@@H](Oc2ccnc(-c3cccs3)c2)CN1C(=O)[C@@H](NC(=O)OC1CCCC1)C(C)(C)C)C(=O)NS(=O)(=O)C1CC1 [Compound 429]
IC50 [1]: < 100 nM
EC50 [2]: < 100 nM

CC[C@@H]1C[C@]1(NC(=O)[C@@H]1C[C@@H](Oc2nccc3cc(OC)ccc23)CN1C(=O)[C@@H](NC(=O)OC(C)(C)C)C(C)(C)C)C(=O)NS(=O)(=O)C(C)C [Compound 15]
IC50 [1]: 100 to 1000 nM
EC50 [2]: 1000 to 10000 nM

C=C[C@@H]1C[C@]1(NC(=O)[C@@H]1C[C@@H](Oc2cc(-c3ccc(OC)cc3)nc3c(C)noc23)CN1C(=O)[C@@H](NC(=O)OC(C)(C)C)C(C)(C)C)C(=O)NS(=O)(=O)C1CC1 [Compound 3]
IC50 [1]: < 100 nM
EC50 [2]: < 100 nM

C=C[C@@H]1C[C@]1(NC(=O)[C@@H]1CC(Oc2nccc3cc(OC)ccc23)CN1C(=O)[C@@H](NC(=O)c1cnccn1)C(C)(C)C)C(=O)NS(=O)(=O)C1CC1 (stereo partly shown) [Compound 63]
IC50 [1]: < 100 nM
EC50 [2]: 1000 to 10000 nM

C=C[C@@H]1C[C@]1(NC(=O)[C@@H]1CC(Oc2nccc3cc(OC)ccc23)CN1C(=O)[C@@H](NC(=O)NC(C)(C)Cc1ccc(F)cc1)C(C)(C)C)C(=O)NS(=O)(=O)C1CC1 (stereo partly shown) [Compound 82]
IC50 [1]: < 100 nM
EC50 [2]: 100 to 1000 nM

C=C[C@@H]1C[C@]1(NC(=O)[C@@H]1CC(Oc2nccc3cc(OC)ccc23)CN1C(=O)[C@@H](NC(N)=O)C(C)(C)C)C(=O)NS(=O)(=O)C1CC1 (stereo partly shown) [Compound 80]
IC50 [1]: < 100 nM
EC50 [2]: 1000 to 10000 nM

C=C[C@@H]1C[C@]1(NC(=O)[C@@H]1C[C@@H](Oc2cc(-c3cccc(OC)c3)nc3c(C)noc23)CN1C(=O)[C@@H](NC(=O)OC(C)(C)C)C(C)(C)C)C(=O)NS(=O)(=O)C1CC1 [Compound 5]
IC50 [1]: < 100 nM
EC50 [2]: < 100 nM

C=CC1C[C@]1(NC(=O)[C@@H]1C[C@@H](Oc2cc(C(F)(F)F)nc3c(OC(F)(F)F)cccc23)CN1C(=O)[C@@H](NC(=O)OC(C)(C)C)C(C)(C)C)C(=O)NS(=O)(=O)C1CC1 (stereo partly drawn) [Compound 182, BOCNH-P3(L-tert-BuGly)-P2[(4R)-(2-trifluoromethyl, 8-trifluoromethoxy quinolin-4-oxo)-S-proline]-P1(1R,2S Vinyl Acca)-CONHSO2-Cyclopropane]
IC50 [1]: < 100 nM
EC50 [2]: 100 to 1000 nM
